Reference: paper PMC12197429, “Evaluation of the Antileishmanial Activity of Some Benzimidazole Derivatives Using In Vitro and In Silico Techniques” (Veterinary Sciences, 2025)
Converted amounts (≈) assume the structure as drawn. Like-named read-outs stand apart in the source and are kept apart here.

Experiments:
[1] = system: L. (L.) major promastigotes; assay: In vitro antileishmanial activity (CellTiter-Glo luminescent cell viability); type: cell-based, Leishmania (L.) major; design: key to Activity class against promastigotes based on IC50: very active (IC50 < 10 μg/mL); active (IC50 > 10 < 50 μg/mL); moderately active (IC50 > 50 < 100 μg/mL); inactive (IC50 > 100 μg/mL); details: for IC50: Leishmania major; for Selectivity index (SI): SI = CC50 (L929)/IC50 (L. (L.) major promastigotes)
Description: Protozoan isolates were obtained from the Parasite Bank at the Department of Parasitology, Faculty of Medicine, Manisa Celal Bayar University. The subsequent procedure for acquiring promastigotes was as follows: the major L. (L.) isolate was classified as MHOM/TR/2014/CBL-LM. It was preserved in liquid nitrogen and defrosted by placing it in a water bath at 37 °C for two minutes after its removal from preservation. Subsequent to melting, the NNN medium was inoculated and incubated in an incubator at 25 °C. The reproductive condition of the protozoan was assessed by making coverslips and slides twice daily. Following parasite replication, the cells were transferred from the NNN medium to the RPMI-1640 medium (Gibco, Paisley, Scotland, UK) to facilitate further proliferation. Before application, 10% fetal calf serum, 1% penicillin/streptomycin, and 1% gentamicin were added to a widely available commercial medium. Distribution was conducted using 5 milliliters per 25 mL flask, and cultivation was performed by adding 50 μL of the cultured promastigotes. Flasks designated for cultivation were incubated in a 25 °C incubator. Parasite reproduction was observed, and the medium was supplemented every 2–3 days. Subsequently, the number of promastigotes was quantified using a Thoma chamber, yielding a concentration of 10^6 promastigotes/mL, and a suspension comprising promastigotes was formulated.
The synthesized compounds were dissolved in DMSO to a final concentration of no more than 0.5% [51]. Based on preliminary studies, the K1 compound was prepared at concentrations ranging from 0.23 µg/mL to 30 µg/mL, while the K2, K3, and K4 compounds were prepared at concentrations ranging from 1.95 µg/mL to 250 µg/mL.
The assay was conducted using 96-well flat-bottom microtiter plates, with three replicate wells per experimental group. The groups included a blank control, parasite control (no treatment), drug control (Amphotericin B), and test groups for compounds K1, K2, K3, and K4. Each well was filled with 100 µL of RPMI-1640 medium supplemented with 10% fetal calf serum, 1% penicillin/streptomycin, and 1% gentamicin. For the four test compounds and Amphotericin B, 100 µL of the respective solution was added to the first well of each group. The contents were mixed thoroughly using an automated dispensing pipette, followed by serial dilutions down the respective wells. Promastigote suspensions, previously counted using a Thoma counting chamber, were added at 100 µL per well to all wells except those designated as blanks. No parasites were added to the blank wells. The plates were then covered with lids, sealed with parafilm, and incubated at 25 °C. Following incubation, cell viability was assessed using the CellTiter-Glo® Luminescent Cell Viability Assay Kit (Promega, Madison, WI, USA). This experimental procedure was repeated in three independent experiments conducted at different time points.
It is calculated as the ratio of the cytotoxic concentration (CC50) required to cause 50% cell death in mammalian cells to the inhibitory concentration (IC50) required to kill 50% of the parasites. The selectivity index values of benzimidazole derivatives for L. (L.) major promastigotes were determined using the following equation: SI = CC50/IC50 [55].

[2] = system: L. (L.) major promastigotes; assay: Morphological alterations of promastigotes by Giemsa staining; type: cell-based, Leishmania (L.) major; details: serial dilutions 0.23 µg/mL to 30 µg/mL, 48 h
Description: The morphological alterations caused by compound K1 at various concentrations in L. (L.) major promastigotes were assessed at the 48 h mark utilizing Giemsa staining (Figure 3).
Figure 3 Control (a) and serial dilutions of the K1 compound (ranging from 0.23 µg/mL to 30 µg/mL) (b–l) in wells containing L. (L.) major promastigotes (100× magnification).

Cytotoxicity test (MTT) = type: cell-based, mouse; details: L929 mouse fibroblast cells, 48 h, MTT
Description: (§1) The cytotoxic effects of the benzimidazole derivatives and AmpB were determined using the L929 cell line (American Type Culture Collection, Manassas, VA, USA). In total, 100 µL of the cell suspension (10^5/mL) was added to each well comprising sterile, flat-bottomed 96-well microplates. The microplates were then incubated at 37 °C in a 5% CO2 incubator for 24 h. Cytotoxic activity was evaluated using the same concentrations applied in the antileishmanial activity assessment. For compound K1, serial dilutions were prepared in the range of 0.23–30 µg/mL, and for the other compounds, in the range of 1.95–250 µg/mL. These dilutions were added to a second microplate, and 100 µL from each well was transferred to the first plate. The plates were then incubated under the same conditions for an additional 48 h.
(§2) Cell viability was determined using the 3-(4.5-dimethylthiazol-2-yl)-2.5-diphenyltetrazolium bromide) (Sigma, Kawasaki, Japan) method. After the completion of the incubation period, all media from the microplates, both containing and lacking the active ingredient, were discarded. Subsequently, 100 μL of MTT suspension was added to each well, and the plates were incubated in a CO2 incubator at 37 °C for four hours. At the end of the incubation period, all wells in the microplates were emptied, and 100 μL of pure DMSO (to dissolve the formazan crystals) was pipetted into each well and incubated under the same conditions for 30 min. Absorbance was measured at 570 nm using a spectrophotometer (Biotek 800TS, Winooski, VT, USA). CC50 values were determined using GraphPad Prism version 8.4.2. All experiments were performed in triplicate, with three independent trials and two replicates per trial.

L929 cell line = assay: Cytotoxicity test (MTT); type: cell-based, mouse; details: L929 cells
Description: as §1, §2

[3] = L. (L.) major promastigotes (MHOM/TR/2014/CBL-LM), 25 °C, CellTiter-Glo, read-out: IC50 (antileishmanial activity)

`C[C@@H]1[C@H](O)[C@@H](C)/C=C/C=C/C=C/C=C/C=C/C=C/C=C/[C@H](O[C@@H]2O[C@H](C)[C@@H](O)[C@H](N)[C@@H]2O)C[C@@H]2O[C@](O)(C[C@@H](O)C[C@@H](O)[C@H](O)CC[C@@H](O)C[C@@H](O)CC(=O)O[C@H]1C)C[C@H](O)[C@H]2C(=O)O` [AmpB, Amphotericin B, reference compound] gave an IC50 [1, 3] of 0.274 µg/mL (≈ 0.297 µM).
For `CC(=O)c1nc2ccccc2n1CC(=O)c1cccc(Cl)c1` [K1], the “Morphological alterations in promastigotes” value [2] was “decreases in the number of promastigotes and morphological structural disruptions were observed”, the CC50 at 48 h (Cytotoxicity test (MTT)) was 250 µg/mL (≈ 799 µM) and the “Cytotoxic effect on L929 cells” value (L929 cell line) was “not observed”. For the same compound, the IC50 [1, 3] was 0.679 µg/mL (≈ 2.17 µM) and the “Selectivity index (SI)” value [1] was 368.25.
In the case of `Cc1nc(-c2cccc(Cl)c2)cn2c1nc1ccccc12` [K2], the CC50 at 48 h (Cytotoxicity test (MTT)) is reported as 63 µg/mL (≈ 214 µM), the IC50 [1, 3] is reported as 8.89 µg/mL (≈ 30.3 µM) and the “Selectivity index (SI)” value [1] is reported as 7.08.
With `Cc1nc(-c2ccccc2)cn2c1nc1ccccc12` [K3] the CC50 at 48 h (Cytotoxicity test (MTT)) was 0.56 µg/mL (≈ 2.16 µM), the “Activity class against promastigotes based on IC50” value ([1]; L. (L.) major promastigotes) was “active” and the IC50 [1, 3] was 45.1 µg/mL (≈ 174 µM). For the same compound, the “Selectivity index (SI)” value [1] was 0.012.
Compound `Cc1nc(-c2ccc(Cl)cc2)cn2c1nc1ccccc12` [K4] has a CC50 at 48 h (Cytotoxicity test (MTT)) of 292 µg/mL (≈ 994 µM), an IC50 [1, 3] of 69.2 µg/mL (≈ 236 µM) and an IC50 ([1]; L. (L.) major promastigotes, read-out: Activity class against promastigotes based on IC50) of 50 to 100 µg/mL (≈ 170 to 340 µM). For the same compound, the “Selectivity index (SI)” value [1] was 4.22.
